Reference: patent publication US5208344A, “Naphthalenepropionic acid derivatives as anti-inflammatory/antiallergic agents” (American Home Products Corporation, priority 1991, dated 1993)
Like-named read-outs stand apart in the source and are kept apart here. Values belong to the molecule of their own block, whether it stands above or below them.

Key:
[1] = test system: inflammatory mediator release; assay: reverse passive Arthus pleurisy assay, inflammatory mediator release; assay type: in vivo, rat; conditions: for ED50: Rattus norvegicus, po
Procedure: (§1) The compounds of the invention are further tested in the reverse passive Arthus pleurisy assay to evaluate their effectiveness in inflammatory mediator release and/or the fluid and cellular phases of an inflammatory response.
A reverse passive Arthus reaction is induced in the pleural cavity of male Lewis rats (150-200 g; fasted overnight prior to use) by the intravenous administration of bovine serum albumin (BSA; 4 mg/0.2 ml) followed 30 minutes later by the injection of rabbit anti-BSA (1 mg/0.2 ml; lyophilized IgG fraction; Organon Teknika, West Chester, PA) into the right pleural space under halothane anesthesia. […] Animals are sacrificed at either the time of peak eicosanoid production (i.e. 5 minutes after anti-BSA for immunoreactive TxB2, 10 minutes for immunoreactive LTB4, 20 minutes for immunoreactive LTC4) or at the time of peak neutrophil infiltration (4 hours after anti-BSA) by CO2 inhalation. The pleural cavity is then exposed, the fluid exudate removed by gentle vacuum aspiration and the volume of exudate is recorded. For the determination of cellular infiltration, the pleural cavity is rinsed with 3 ml of 0.1% EDTA in sterile saline, and the recovered wash is pooled with the exudate. Cell number is determined on a model ZBI Coulter counter. For determination of eicosanoid production, undiluted pleural exudate is microfuged and the supernatant is extracted with ethanol (8-10 times volume). Extracts are either stored at -20° C., or are evaporated to dryness under a stream of N2 and reconstituted in radioimmunoassay (RIA) buffer.
Eicosanoids are quantitated by RIA according to the procedure specified by the RIA kit manufacturer (Advanced Magnetics, Cambridge, MA). Briefly, 100 μl of ^3 H-labeled eicosanoid and 100 μl of specific antibody are sequentially added to 100 μl of extracted pleural exudate in BGG-phosphate buffer which contains 0.01 M phosphate, 0.1% bovine gamma globulin and 0.1% sodium azide at pH 7.0. Antibody-bound eicosanoid is separated form unbound eicosanoid by the addition of 750 μl of dextran (0.4%)-coated charcoal (0.4% Norit A) containing 0.1% sodium azide. The mixture is centrifuged at 2000 RPM at 5° C. for 15 minutes to pellet the charcoal and adsorbed unbound eicosanoid. Antibody-bound labeled eicosanoid is quantitated by counting in a liquid scintillation counter, and is correlated to concentration by a standard curve.
(§2) Inflammatory cells are expressed as 10^6 cells/ml, pleural exudate is expressed as ml of fluid, and the amount of eicosanoids in the pleural cavity is expressed as ng/ml of exudate. Mean±S.E.M. is determined for each group. Percent inhibition (% I) of cell number, exudate volume and eicosanoid production is calculated for vehicle-treated control groups, and the responses in drug-treated rats are then expressed as the mean $ I of control.

pleural inflammation = assay: reverse passive Arthus pleurisy assay, pleural inflammation; assay type: in vivo; conditions: rat; for ED30: po, 4 h; for ED30 / ED30 Fluid Exudation: p.o.
Procedure: as §1
A reverse passive Arthus reaction is induced in the pleural cavity of male Lewis rats (150-200 g; fasted overnight prior to use) by the intravenous administration of bovine serum albumin (BSA; 4 mg/0.2 ml) followed 30 minutes later by the injection of rabbit anti-BSA (1 mg/0.2 ml; lyophilized IgG fraction; Organon Teknika, West Chester, PA) into the right pleural space under halothane anesthesia. Drugs or vehicle (0.5% Tween-80) control are administered orally in a volume of 1 ml/100 g body weight at 1 hour prior to the anti-BSA. Animals are sacrificed at either the time of peak eicosanoid production (i.e. 5 minutes after anti-BSA for immunoreactive TxB2, 10 minutes for immunoreactive LTB4, 20 minutes for immunoreactive LTC4) or at the time of peak neutrophil infiltration (4 hours after anti-BSA) by CO2 inhalation. The pleural cavity is then exposed, the fluid exudate removed by gentle vacuum aspiration and the volume of exudate is recorded. For the determination of cellular infiltration, the pleural cavity is rinsed with 3 ml of 0.1% EDTA in sterile saline, and the recovered wash is pooled with the exudate. Cell number is determined on a model ZBI Coulter counter. For determination of eicosanoid production, undiluted pleural exudate is microfuged and the supernatant is extracted with ethanol (8-10 times volume). Extracts are either stored at -20° C., or are evaporated to dryness under a stream of N2 and reconstituted in radioimmunoassay (RIA) buffer.
as §2

LTD4 = biological target: T1, LTD4 (Cavia porcellus, UniProt Q2NNR5); assay: LTD4 antagonist activity in isolated guinea pig trachea; assay type: cell-based; conditions: reference leukotriene antagonists
T1 construct: isolated guinea pig trachea; from tissue; host or cells: guinea pig tracheal rings
T1 sequence (Q2NNR5 1-340): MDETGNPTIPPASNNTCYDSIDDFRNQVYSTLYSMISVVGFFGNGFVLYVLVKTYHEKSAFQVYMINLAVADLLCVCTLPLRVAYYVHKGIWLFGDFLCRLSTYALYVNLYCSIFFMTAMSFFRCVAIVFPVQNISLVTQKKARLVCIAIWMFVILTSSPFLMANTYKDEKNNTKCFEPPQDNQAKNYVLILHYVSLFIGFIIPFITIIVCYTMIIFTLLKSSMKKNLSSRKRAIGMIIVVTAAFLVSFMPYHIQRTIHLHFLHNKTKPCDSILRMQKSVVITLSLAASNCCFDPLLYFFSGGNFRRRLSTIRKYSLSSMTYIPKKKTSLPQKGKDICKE
Procedure: The LTD4 antagonist activity of the compounds of the invention is assessed in the in vitro isolated guinea pig trachea assay. Male Hartley guinea pigs (350-400 g) are euthanized by a blow to the head, the neck is opened and the trachea removed. The trachea is maintained in aerated physiological salt solution, cleared of connective tissue and fat and cut into rings approximately 2 mm in width (usually containing two cartilaginous segments per ring). Two pieces of silk suture are then passed through the lumen of the tracheal ring and are tied around the cartilage, one on each side of the trachealis muscle. The tracheal ring is suspended between a glass hook and a force displacement transducer in a 10 ml organ bath for measurement of isometric tension. Tissues are maintained at 37° C. in aerated ([…] /5% CO2) physiological salt solution of the following composition: […] The tracheal rings are maintained at 2 g resting tension and equilibrated for 45 minutes (with frequence washing and readjustment of resting tension). The tracheal rings are first contracted by the addition of carbachol (3×10^-6 M), to determine tissue responsiveness and establish a reference contraction. On attainment of a stable level of contraction (approximately 30 minutes), the tissues are washed several times until baseline tension has been restored and the re-equilibrated for 30 minutes. The tissues are then incubated for 45 minutes with a test antagonist (either 1×10^-6 M or 1×10^-5 M) or 10 μl of an appropriate solvent control (control, non-treated). One tissue in each group serves as the control. Twenty minutes prior to the construction of the LTD4 cumulative concentration-response curve, L-[…]×10^-2 M final bath concentration) is added to inhibit bioconversion of LTD4 to LTE4. Only one LTD4 concentration-response curve is constructed in each tissue. All responses to LTD4 in an individual tissue are measured as a percentage of the reference contraction of that tissue to carbachol. LTD4 antagonist activity is determined by comparison of the concentration response curves of LTD4 in the presence and absence of antagonist. Assessment of the relative rightward shift of the antagonist treated curve relative to the solvent (control) treated tissue is calculated as a concentration ratio (Eq. A) and used in subsequent calculations to derive an antagonist pKB value (Eqs. B and C). In the vent that the maximum response to LTD4 is depressed, the EC50 for that particular curve is determined, an "apparent" pKB reported, and the compound reported as "not-competitive." [formula] If a compound is found to be active and/or depress the maximal response to LTD4, then a range of concentrations of the test compound should be used generating multiple concentration ratios which would than be used to perform a Schild analysis, and determination of a pA2 value where appropriate.

5-lipoxygenase = biological target: T2, 5-lipoxygenase (Rattus norvegicus, UniProt P12527); assay: inhibition of 5-HETE synthesis by rat glycogen elicited polymorphonuclear leukocytes; assay type: cell-based; conditions: read-out: % Inhibition of 5-LO (as 5-HETE)
T2 construct: Peritoneal PMN are obtained from female Wistar rats (150-250 g); endogenous in cells; host or cells: rat glycogen-elicited peritoneal polymorphonuclear leukocytes, intact
T2 sequence (P12527 1-673): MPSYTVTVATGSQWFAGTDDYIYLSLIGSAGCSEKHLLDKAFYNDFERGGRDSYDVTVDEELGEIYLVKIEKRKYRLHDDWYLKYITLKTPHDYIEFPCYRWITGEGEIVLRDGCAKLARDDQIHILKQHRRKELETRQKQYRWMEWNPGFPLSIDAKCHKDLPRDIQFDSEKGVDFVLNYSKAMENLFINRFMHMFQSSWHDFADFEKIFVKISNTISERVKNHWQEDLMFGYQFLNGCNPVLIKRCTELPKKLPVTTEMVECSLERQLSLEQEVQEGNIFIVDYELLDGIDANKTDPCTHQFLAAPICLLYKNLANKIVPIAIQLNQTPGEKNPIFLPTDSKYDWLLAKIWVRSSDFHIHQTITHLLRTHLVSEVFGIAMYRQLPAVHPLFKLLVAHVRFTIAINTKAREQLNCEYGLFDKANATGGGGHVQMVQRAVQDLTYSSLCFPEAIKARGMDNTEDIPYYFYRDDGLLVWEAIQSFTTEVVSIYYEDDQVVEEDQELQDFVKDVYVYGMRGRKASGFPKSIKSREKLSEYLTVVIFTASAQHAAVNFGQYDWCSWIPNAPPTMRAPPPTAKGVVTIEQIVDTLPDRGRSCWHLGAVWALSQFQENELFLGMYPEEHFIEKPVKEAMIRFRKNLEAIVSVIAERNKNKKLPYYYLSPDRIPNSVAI
Procedure: The assay of this Example measures the ability of the compounds of the invention to inhibit the synthesis of 5-HETE by rat glycogen elicited polymorphonuclear leukocytes.
(§3) Peritoneal PMN are obtained from female Wistar rats (150-250 g) that received an i.p. injection of 6% glycogen (10 ml). After 24 hours, rats are killed by CO2 asphysiation and peritoneal cells are harvested by peritoneal lavage using Ca^++ and MG^++ free Hanks' balanced salt solution (HBSS). The peritoneal exudate is centrifuged at 400 g for 10 minutes. After centrifugation, the lavaged fluid is removed and the cell pellet is resuspended in HBSS containing Ca^++ and MG^++ and 10 mM L-cysteine at a concentration of 2×10^7 cells/ml. To 1 ml portions of cell suspension, test drugs or vehicle are added and incubated at 37° C. for 10 minutes. Following this preincubation, the calcium ionophore (10 μM), a23187, is added together with 0.5 μM [14 C] arachidonic acid and further incubated for 10 minutes. The reaction is stopped by the addition of ice cold water (3 ml) and acidifying to pH 3.5. Lipoxygenase products are then extracted twice into diethyl ether. The pooled ether extracts are evaporated to dryness under nitrogen and the residue is redissolved in a small volume of methanol and spotted on aluminum backed pre-coated thin layer chromatographic plates. The samples are then cochromatographed with authentic reference 5-HETE in the solvent system - hexane: ether: acetic acid (50:50:3). After chromatography, the areas associated with 5-HETE standard are identified by autoradiography, cut out and quantitated by liquid scintillation.

cyclooxygenase = assay: inhibition of synthesis of cyclooxygenase products TxB2 and PGE2 (rat polymorphonuclear leukocytes); assay type: cell-based; conditions: 10 μM; rat PMN; negative = potentiation of PGE2 synthesis
Procedure: as §3
However, in order to determine cyclooxygenase activity, the samples are cochromatographed with authentic reference TxB2 and PGE2 in the solvent system ethyl acetate: formic acid (80:1) and the upper phase of ethyl acetate: isooctane: acetic acid: water (110:50:20:100). After chromatography, the areas associated with the TxB2 and PGE2 standards are identified by autoradiography, cut out and quantitated by liquid scintillation techniques.

[2] = 5 min, p.o., 1 hour prior to anti-BSA, rat, read-out: ED50 TxB2
[3] = 10 min, p.o., 1 hour prior to anti-BSA, rat, read-out: ED50 LTB4
[4] = p.o., 1 hour prior to anti-BSA, rat, 10 min
[5] = p.o., 1 hour prior to anti-BSA, rat, 5 min

SMILES: O=C1CCN(c2ccccc2)N1 [Phenidone]
- ED50 [1, 2]: 69 mg/kg
- ED50 [1, 3]: 10 mg/kg
- ED30 (pleural inflammation; read-out: ED30 Cellular Influx): 23 mg/kg
- ED30 (pleural inflammation; read-out: ED30 Fluid Exudation): 21 mg/kg

- pKB (LTD4): 7.44 ± 0.12
SMILES: CCCc1c(OCCCCc2nn[nH]n2)ccc(C(C)=O)c1O [Ly-171,883, reference compound]

SMILES: CN1C(C(=O)Nc2ccccn2)=C(O)c2ccccc2S1(=O)=O [Piroxican]
- ED30 (pleural inflammation; read-out: ED30 Cellular Influx): 3 mg/kg
- ED30 (pleural inflammation; read-out: ED30 Fluid Exudation): 1 mg/kg

SMILES: C[C@H](C(=O)O)c1ccc2cc(OCc3ccc4ccccc4n3)ccc2c1.NC(CO)(CO)CO [Wy-50,295-A]
- % Inh TxB2 ([1]; 75 mg/kg p.o., rat): 0%
- ED50 LTB4 [1, 4]: 15 mg/kg

- pKB (LTD4): 6.90 ± 0.23
SMILES: O=S(=O)(Nc1cccc(OCc2ccc3ccccc3n2)c1)C(F)(F)F [Wy-48,252, reference compound]

SMILES: NC1=NN(c2cccc(C(F)(F)F)c2)CC1 [BW755C]
- ED50 [1, 2]: 18 mg/kg
- ED50 [1, 3]: 23 mg/kg
- ED30 (pleural inflammation; read-out: ED30 Cellular Influx): 28 mg/kg
- ED30 (pleural inflammation; read-out: ED30 Fluid Exudation): 14 mg/kg

SMILES: CN=C1CCN(c2cccc(C(F)(F)F)c2)N1 [BW540C]
- ED50 TxB2 [1, 5]: 19 mg/kg
- ED50 LTB4 [1, 4]: 30 mg/kg

SMILES: C[C@@H]1C[C@H]2[C@@H]3CCC4=CC(=O)C=C[C@]4(C)[C@@]3(F)[C@@H](O)C[C@]2(C)[C@@]1(O)C(=O)CO [Dexamethasone]
- ED30 Fluid Exudation (pleural inflammation): 0.05 mg/kg
- ED30 (pleural inflammation; read-out: ED30 Cellular Influx): 0.13 mg/kg

SMILES: COc1ccc2cc([C@H](C)C(=O)O)ccc2c1 [naproxen]
- inhibition at 10 µM (5-lipoxygenase): -94%
- % Inhibition of CO (as PGE2) (cyclooxygenase): 85%
- % Inh LTB4 ([1]; 4 mg/kg p.o., rat): 0%
- ED50 TxB2 [1, 5]: 0.24 mg/kg
- % Inh Cellular Influx (pleural inflammation; 8 mg/kg p.o.): 29%
- ED30 Fluid Exudation (pleural inflammation): 3.9 mg/kg

SMILES: O=C(O)Cc1ccccc1Nc1c(Cl)cccc1Cl [Diclofenac]
- % Inh LTB4 ([1]; 10 mg/kg p.o., rat): 0%
- ED50 ([1]; 5 min, read-out: ED50 TxB2): 6 mg/kg

SMILES: CC(C(=O)O)c1cccc(C(=O)c2ccccc2)c1 (stereo not shown) [Ketoprofen]
- % Inh LTB4 ([1]; 10 mg/kg p.o., rat): 35%
- ED50 ([1]; 5 min, read-out: ED50 TxB2): 0.18 mg/kg
